The record followed here is ChEMBL document CHEMBL4325918, “Allosteric CB1 Receptor Modulators for the Treatment of CB1 Related Diseases and Conditions” (ACS Med Chem Lett, 2018).

SMILES strings stand for the structures. Active and inactive are the calls of the source. The rule behind the calls is not given here.

The term Emax denotes the maximal effect, on the per cent scale that the assay sets. What is called IC50 is the concentration that inhibits the measured activity by half. As a reminder, the half-life is the time in which the quantity being followed falls by half. The low end stands for rapid decline, the high end for slow decline.

Data set [1] addresses T1, Cannabinoid receptor 1 (Homo sapiens, UniProt P21554). Briefly: Agonist activity at CB1 receptor (unknown origin) relative to CP55940.
Data set [2] addresses T1, Cannabinoid receptor 1. Nature of the data set: Allosteric modulation of CB1 receptor (unknown origin) assessed as inhibition of CP55940-induced [35S]GTPgammaS binding. Format: functional. Background: GTPγS is a poorly hydrolysed GTP analogue; its binding reports G protein activation.
Data set [3] in a line: Half life in Sprague-Dawley rat. Format: ADME. To be noted: in vivo.
The subject of the next data set is Rattus norvegicus. Briefly: Reduction in cocaine-induced reinstatement of cocaine seeking behavior in Sprague-Dawley rat at 10 mg/kg. It counts as functional, organism-based.

T1 sequence (P21554 whole entry): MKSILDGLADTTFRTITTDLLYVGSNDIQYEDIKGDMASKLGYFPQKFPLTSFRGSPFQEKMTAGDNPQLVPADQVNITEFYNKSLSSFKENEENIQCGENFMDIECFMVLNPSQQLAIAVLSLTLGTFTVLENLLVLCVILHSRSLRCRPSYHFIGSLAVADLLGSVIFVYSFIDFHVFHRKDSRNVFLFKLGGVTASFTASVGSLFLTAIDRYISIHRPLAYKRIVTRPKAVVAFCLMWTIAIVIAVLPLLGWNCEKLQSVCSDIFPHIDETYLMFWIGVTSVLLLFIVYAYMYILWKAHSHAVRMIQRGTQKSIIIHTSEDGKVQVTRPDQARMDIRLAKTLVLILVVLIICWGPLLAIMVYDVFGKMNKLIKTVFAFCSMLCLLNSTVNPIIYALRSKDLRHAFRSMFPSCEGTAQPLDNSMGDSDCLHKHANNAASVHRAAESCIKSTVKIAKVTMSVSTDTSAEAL

The compound `Cc1ccc(-c2cccc(NC(=O)Nc3ccc(Cl)cc3)c2)s1` returned an Emax on Cannabinoid receptor 1 [1] of 4.6%. Also, the half-maximal inhibitory concentration (IC50) on Cannabinoid receptor 1 [2] was 0.372 µM.
With `O=C(Nc1ccc(Cl)cc1)Nc1cccc(N2CCC2)c1`, on Cannabinoid receptor 1 [2], the IC50 was 1.38 µM.
On the same count and under the same terms, under `O=C(Nc1ccc(Cl)cc1)Nc1cccc(-c2ccccc2)c1` stands 0.437 µM.
In turn, `O=C(Nc1ccc(Cl)cc1)Nc1cccc(-c2ccsc2)c1` returned an Emax at Cannabinoid receptor 1 [1] of 28.9%. Further, the half-maximal inhibitory concentration (IC50) at Cannabinoid receptor 1 [2] came to 0.164 µM.
In the case of `O=C(Nc1ccc(Cl)cc1)Nc1cccc(-c2cc(Cl)cc(Cl)c2)c1`, at Cannabinoid receptor 1 [2], the IC50 was found to be 0.299 µM.
The compound `Cc1cc(-c2cccc(NC(=O)Nc3ccc(Cl)cc3)c2)cs1` yielded an Emax at Cannabinoid receptor 1 [1] of 3.7%. For the same compound, on Cannabinoid receptor 1 [2], the IC50 was 0.776 µM.
Consider `O=C(Nc1ccc(Cl)cc1)Nc1cccc(-c2ccc(F)cc2)c1`, for which the IC50 at Cannabinoid receptor 1 [2] stood at 0.151 µM. The compound further displayed a half-life in data set [3] of 5 h. Besides, the result with Rattus norvegicus was Active.
As to `O=C(Nc1ccc(Cl)cc1)Nc1cccc(-c2cccc([N+](=O)[O-])c2)c1`, the IC50 at Cannabinoid receptor 1 [2] was determined as 0.452 µM.
Regarding `O=C(Nc1ccc(Cl)cc1)Nc1cccc(-c2ccoc2)c1`, at Cannabinoid receptor 1 [2], the IC50 came out at 0.44 µM.
Still for that read-out and setting: under `O=C(Nc1ccc(Cl)cc1)Nc1cccc(-c2ccc(F)cc2F)c1` stands 0.353 µM; under `O=C(Nc1ccc(Cl)cc1)Nc1cccc(-c2ccccn2)c1`, 2.65 µM.
